Measurements reported in the NIST ThermoML archive (doi:10.1021/je400529k).
Numbers after ± are expanded uncertainties.

Tests used:
[1] = refractive index (Na D-line) (dimensionless); xn = mol fraction of the nth substance listed; conditions: 101 kPa, Liquid, Standard Abbe refractometry
[2] = xn = mol fraction of the nth substance listed; conditions: 101 kPa, Liquid; for viscosity: Capillary tube (Ostwald / Ubbelohde) method; for mass density: Vibrating tube method

C1C[C@@H]2[C@H]3CC[C@H](C3)[C@@H]2C1 [exo-tetrahydrodicyclopentadiene] + CC1CCCCC1
Conditions | mass density, [2] [kg/m3] | refractive index, [1] | viscosity, [2] [mPa·s]
293.15 K, x1 = 0.1 | 788.79 ± 0.15 | 1.4298 ± 0.001 | 0.842 ± 0.009
293.15 K, x1 = 0.2009 | 807.71 ± 0.15 | 1.4376 ± 0.001 | 0.959 ± 0.01
293.15 K, x1 = 0.301 | 825.81 ± 0.15 | 1.4447 ± 0.001 | 1.102 ± 0.01
293.15 K, x1 = 0.3999 | 843.02 ± 0.14 | 1.4515 ± 0.001 | 1.267 ± 0.011
293.15 K, x1 = 0.4999 | 859.94 ± 0.14 | 1.4586 ± 0.001 | 1.454 ± 0.012
293.15 K, x1 = 0.5992 | 876.09 ± 0.14 | 1.4646 ± 0.001 | 1.67 ± 0.012
293.15 K, x1 = 0.7004 | 891.98 ± 0.14 | 1.4709 ± 0.001 | 1.925 ± 0.014
293.15 K, x1 = 0.7995 | 906.95 ± 0.14 | 1.4768 ± 0.001 | 2.22 ± 0.015
293.15 K, x1 = 0.9011 | 921.82 ± 0.15 | 1.482 ± 0.001 | 2.582 ± 0.017
293.15 K, x1 = 1 | 935.72 ± 0.15 | 1.4874 ± 0.001 | 2.992 ± 0.02
298.15 K, x1 = 0.1 | 784.53 ± 0.15 | – | 0.785 ± 0.009
298.15 K, x1 = 0.2009 | 803.5 ± 0.15 | – | 0.892 ± 0.01
298.15 K, x1 = 0.301 | 821.64 ± 0.15 | – | 1.023 ± 0.01
298.15 K, x1 = 0.3999 | 838.89 ± 0.14 | – | 1.171 ± 0.01
298.15 K, x1 = 0.4999 | 855.86 ± 0.14 | – | 1.34 ± 0.011
298.15 K, x1 = 0.5992 | 872.05 ± 0.14 | – | 1.534 ± 0.012
298.15 K, x1 = 0.7004 | 887.96 ± 0.14 | – | 1.762 ± 0.013
298.15 K, x1 = 0.7995 | 902.99 ± 0.15 | – | 2.026 ± 0.014
298.15 K, x1 = 0.9011 | 917.88 ± 0.15 | – | 2.347 ± 0.016
298.15 K, x1 = 1 | 931.84 ± 0.15 | – | 2.71 ± 0.018
303.15 K, x1 = 0.1 | 780.25 ± 0.15 | 1.4253 ± 0.001 | 0.735 ± 0.009
303.15 K, x1 = 0.2009 | 799.26 ± 0.15 | 1.4324 ± 0.001 | 0.833 ± 0.009
303.15 K, x1 = 0.301 | 817.46 ± 0.15 | 1.4402 ± 0.001 | 0.952 ± 0.01
303.15 K, x1 = 0.3999 | 834.75 ± 0.15 | 1.4472 ± 0.001 | 1.087 ± 0.01
303.15 K, x1 = 0.4999 | 851.75 ± 0.14 | 1.4539 ± 0.001 | 1.239 ± 0.011
303.15 K, x1 = 0.5992 | 867.99 ± 0.14 | 1.4599 ± 0.001 | 1.416 ± 0.011
303.15 K, x1 = 0.7004 | 883.94 ± 0.14 | 1.4662 ± 0.001 | 1.621 ± 0.012
303.15 K, x1 = 0.7995 | 899.01 ± 0.15 | 1.4722 ± 0.001 | 1.857 ± 0.014
303.15 K, x1 = 0.9011 | 913.94 ± 0.15 | 1.478 ± 0.001 | 2.146 ± 0.015
303.15 K, x1 = 1 | 927.94 ± 0.15 | 1.4831 ± 0.001 | 2.467 ± 0.017
308.15 K, x1 = 0.1 | 775.95 ± 0.16 | – | 0.692 ± 0.009
308.15 K, x1 = 0.2009 | 795.01 ± 0.15 | – | 0.781 ± 0.009
308.15 K, x1 = 0.301 | 813.26 ± 0.15 | – | 0.89 ± 0.01
308.15 K, x1 = 0.3999 | 830.6 ± 0.15 | – | 1.013 ± 0.01
308.15 K, x1 = 0.4999 | 847.64 ± 0.15 | – | 1.151 ± 0.01
308.15 K, x1 = 0.5992 | 863.93 ± 0.14 | – | 1.312 ± 0.011
308.15 K, x1 = 0.7004 | 879.91 ± 0.15 | – | 1.497 ± 0.012
308.15 K, x1 = 0.7995 | 895.01 ± 0.15 | – | 1.709 ± 0.013
308.15 K, x1 = 0.9011 | 910 ± 0.15 | – | 1.967 ± 0.014
308.15 K, x1 = 1 | 924.02 ± 0.15 | – | 2.255 ± 0.016
313.15 K, x1 = 0.1 | 771.64 ± 0.16 | 1.4198 ± 0.001 | 0.652 ± 0.009
313.15 K, x1 = 0.2009 | 790.75 ± 0.15 | 1.4276 ± 0.001 | 0.733 ± 0.009
313.15 K, x1 = 0.301 | 809.05 ± 0.15 | 1.4351 ± 0.001 | 0.834 ± 0.009
313.15 K, x1 = 0.3999 | 826.43 ± 0.15 | 1.4421 ± 0.001 | 0.947 ± 0.01
313.15 K, x1 = 0.4999 | 843.53 ± 0.15 | 1.449 ± 0.001 | 1.074 ± 0.01
313.15 K, x1 = 0.5992 | 859.84 ± 0.15 | 1.4549 ± 0.001 | 1.218 ± 0.011
313.15 K, x1 = 0.7004 | 875.88 ± 0.15 | 1.4617 ± 0.001 | 1.388 ± 0.011
313.15 K, x1 = 0.7995 | 891.03 ± 0.15 | 1.4672 ± 0.001 | 1.579 ± 0.012
313.15 K, x1 = 0.9011 | 906.04 ± 0.15 | 1.4732 ± 0.001 | 1.81 ± 0.013
313.15 K, x1 = 1 | 920.11 ± 0.15 | 1.4786 ± 0.001 | 2.069 ± 0.015
318.15 K, x1 = 0.1 | 767.31 ± 0.16 | – | 0.616 ± 0.009
318.15 K, x1 = 0.2009 | 786.48 ± 0.15 | – | 0.691 ± 0.009
318.15 K, x1 = 0.301 | 804.83 ± 0.15 | – | 0.783 ± 0.009
318.15 K, x1 = 0.3999 | 822.26 ± 0.15 | – | 0.887 ± 0.01
318.15 K, x1 = 0.4999 | 839.4 ± 0.15 | – | 1.003 ± 0.01
318.15 K, x1 = 0.5992 | 855.75 ± 0.15 | – | 1.135 ± 0.01
318.15 K, x1 = 0.7004 | 871.84 ± 0.15 | – | 1.29 ± 0.011
318.15 K, x1 = 0.7995 | 887.03 ± 0.15 | – | 1.463 ± 0.012
318.15 K, x1 = 0.9011 | 902.08 ± 0.15 | – | 1.672 ± 0.013
318.15 K, x1 = 1 | 916.18 ± 0.15 | – | 1.907 ± 0.014
